Source: patent US20080306038A1, “Compositions and Methods for Modulating Inflammation Using Fluoroquinolones” (priority 2007, published 2008)

Experiments:
Assay type in all cases: cell-based, human
IL-8 = assay: LPS-stimulated IL-8 production in THP-1 monocytes (multiplex Luminex); set-up: key to Inhibition of LPS-stimulated IL-8 production: “X” signifies significant inhibition at a particular concentration; details: 18 hours, THP-1 monocytes
Method: (§1) Human THP-1 monocytes (ATCC TIB 202) were purchased from American Type Culture Collection (Manassas, Va.) and maintained in RPMI 1640 medium (Invitrogen, Carlsbad, Calif.) supplemented with 10% fetal bovine serum (“FBS”, Invitrogen, Carlsbad, Calif.), 100 U/mL of penicillin (Invitrogen, Carlsbad, Calif.), and 100 μg/mL of streptomycin (Invitrogen, Carlsbad, Calif.) at 37° C. in a humidified incubator with 5% CO2. THP-1 cells were pre-cultured in RPMI 1640 medium containing 10% dialyzed serum for 24 h. […] Each treatment was performed in triplicate.
(§2) Samples were analyzed using multiplex bead technology, which utilizes microspheres as the solid support for immunoassays and allows the analysis of all cytokines from each sample (D. A. Vignali, J. Immunol. Methods, Vol. 243, 243-255 (2000)). Sixteen cytokines were measured according to the manufacturer's instructions. Briefly, 50 μL of medium samples were incubated with antibody-coated capture beads overnight at 4° C. Washed beads were further incubated with biotin-labelled anti-human cytokine antibodies for 2 h at room temperature followed by incubation with streptavidin-phycoerythrin for 30 min. Samples were analyzed using Luminex 200™ (Luminex, Austin, Tex.) and Beadview software v1.0 (Upstate Cell Signaling Solutions, Temecula, Calif.). Standard curves of known concentrations of recombinant human cytokines were used to convert fluorescence units (median fluorescence intensity) to cytokine concentration in pg/mL. Only the linear portions of the standard curves were used to quantify cytokine concentrations, and in instances where the fluorescence reading exceeded the linear range of the standard curve, an appropriate dilution was performed to ensure that the concentration was in the linear portion of the curve.
(§3) All cytokine concentrations (pg/mL) were expressed as mean ±standard deviation. Statistical analysis comparing effects of treatment across groups was performed using a one-way ANOVA with a Dunnett's post-hoc comparison test using either vehicle control or LPS treatment as references. For all assays, p≦0.05 was predetermined as the criterion of statistical significance.

IP-10 = assay: LPS-stimulated IP-10 production in THP-1 monocytes (multiplex Luminex); set-up: key to Inhibition of LPS-stimulated IP-10 production: “X” signifies significant inhibition at a particular concentration; details: 18 hours, THP-1 monocytes
Method: as §1, §2, §3

IL-6 = assay: LPS-stimulated IL-6 production in THP-1 monocytes (multiplex Luminex); set-up: key to Inhibition of LPS-stimulated IL-6 production: “X” signifies significant inhibition at a particular concentration; details: 18 hours, THP-1 monocytes
Method: as §1, §2, §3

IL-1α = assay: LPS-stimulated IL-1α production in THP-1 monocytes (multiplex Luminex); set-up: key to Inhibition of LPS-stimulated IL-1α production: “X” signifies significant inhibition at a particular concentration; details: 18 hours, THP-1 monocytes
Method: as §1, §2, §3

IL-1ra = assay: LPS-stimulated IL-1ra production in THP-1 monocytes (multiplex Luminex); set-up: key to Inhibition of LPS-stimulated IL-1ra production: “X” signifies significant inhibition at a particular concentration; details: 18 hours, THP-1 monocytes
Method: as §1, §2, §3

IL-1β = assay: LPS-stimulated IL-1β production in THP-1 monocytes (multiplex Luminex); set-up: key to Inhibition of LPS-stimulated IL-1β production: “X” signifies significant inhibition at a particular concentration; details: 18 hours, THP-1 monocytes
Method: as §1, §2, §3

IL-12p40 = assay: LPS-stimulated IL-12p40 production in THP-1 monocytes (multiplex Luminex); set-up: key to Inhibition of LPS-stimulated IL-12p40 production: “X” signifies significant inhibition at a particular concentration; details: 18 hours
Method: as §1, §2, §3

MIP-1α = assay: LPS-stimulated MIP-1α production in THP-1 monocytes (multiplex Luminex); set-up: key to Inhibition of LPS-stimulated MIP-1α production: “X” signifies significant inhibition at a particular concentration; details: 18 hours, THP-1 monocytes
Method: as §1, §2, §3

VEGF = assay: LPS-stimulated VEGF production in THP-1 monocytes (multiplex Luminex); set-up: key to Inhibition of LPS-stimulated VEGF production: “X” signifies significant inhibition at a particular concentration; details: 30 μg/mL compound + 10 μg/mL LPS, 18 hours, THP-1 monocytes
Method: as §1, §2, §3

[1] = 30 μg/mL compound + 10 μg/mL LPS
[2] = 10 μg/mL compound + 10 μg/mL LPS

With `COc1c(N2C[C@@H]3CCCN[C@@H]3C2)c(F)cc2c(=O)c(C(=O)O)cn(C3CC3)c12` [Moxifloxacin, moxifloxacin, reference compound] the “Inhibition of LPS-stimulated IL-8 production” value (IL-8; [1]) was “X”, the “Concentration at which a significant inhibitory effect was observed for IL-8” value (IL-8; LPS-induced) was 30 µg/mL and the “Inhibition of LPS-stimulated IP-10 production” value (IP-10; [1]) was “X”. For the same compound, the “Concentration at which a significant inhibitory effect was observed for IP-10” value (IP-10; LPS-induced) was 30 µg/mL, the “Inhibition of LPS-stimulated IL-6 production” value (IL-6; [2]) was “X” and the “Concentration at which a significant inhibitory effect was observed for IL-6” value (IL-6; LPS-induced) was 10 µg/mL. The “Inhibition of LPS-stimulated IL-1α production” value (IL-1α; [1]) was “X”, the “Concentration at which a significant inhibitory effect was observed for IL-1α” value (IL-1α; LPS-induced) was 30 µg/mL and the “Inhibition of LPS-stimulated IL-1ra production” value (IL-1ra; [2]) was “X”. For the same compound, the “Inhibition of LPS-stimulated IL-1ra production” value (IL-1ra; [1]) was “X”, the “Concentration at which a significant inhibitory effect was observed for IL-1ra” value (IL-1ra; LPS-induced) was 10 µg/mL and the “Inhibition of LPS-stimulated IL-1β production” value (IL-1β; [1]) was “X”. For the same compound, the “Concentration at which a significant inhibitory effect was observed for IL-1β” value (IL-1β; LPS-induced) was 30 µg/mL, the “Inhibition of LPS-stimulated IL-12p40 production” value (IL-12p40; 1 μg/mL compound + 10 μg/mL LPS) was “X” and the “Inhibition of LPS-stimulated IL-12p40 production” value (IL-12p40; [2]) was “X”. The “Inhibition of LPS-stimulated IL-12p40 production” value (IL-12p40; [1]) was “X”, the “Concentration at which a significant inhibitory effect was observed for IL-12p40” value (IL-12p40; LPS-induced) was 1 µg/mL and the “Inhibition of LPS-stimulated MIP-1α production” value (MIP-1α; [1]) was “X”. For the same compound, the “Concentration at which a significant inhibitory effect was observed for MIP-1α” value (MIP-1α; LPS-induced) was 30 µg/mL and the “Inhibition of LPS-stimulated VEGF production” value (VEGF) was “X”.
